Data as given in patent US10561720B2, “Pharmaceutical compositions, comprising a combination of select carriers, vitamins, tannins and flavonoids as antigen-specific immuno-modulators” (EpitoGenesis, Inc., priority 2011, dated 2020).

Legend:
[1] = system: Female BALB/c mice; experiment: Example 5: IM vaccination with gp120 BaL in oleic acid formulations, serum gp120-specific IgG1 ELISA at 2WP2; format: in vivo; settings: 40% oleic acid, compared to oleic acid plus EGCG, VA plus EGCG alone or no adjuvant, FIG. 11
Experimental: Groups of 4 female BALB/C mice were vaccinated intra-muscularly with various vaccine formulations containing 2.5 ug gp120 from the BaL Glade of HIV-1 twice at a 3 weeks interval. Serum gp120-specific IgG1 titers were measured by ELISA at 2 weeks post second vaccination (2WP2). The mice were vaccinated with combinations of retinyl palmitate (RP; 54 IU), epigallo catechin gallate (EGCG; 120 ug) in either 40% oleic acid, each alone or in various combinations.

[2] = system: BALB/c mice; experiment: cytokine responses in iliac lymph nodes after mucosal (IN/SL) and systemic (IM) vaccinations; format: in vivo; settings: two mucosal (IN/SL) and one systemic (IM) boosting vaccinations vs. three IM vaccinations with Imject Alum; FIG. 4
[3] = system: murine air pouch model; experiment: murine air pouch model of local cytotoxicity, multiplex Luminex of pouch fluid; format: in vivo, mice; settings: compared to injection of NIDS, FIG. 7
Experimental: A local cytotoxicity test was performed by employing the murine air pouch model.

[4] = system: mice; experiment: serum TNFα and IL-6 at 6 hours following a single IM injection; format: in vivo; settings: 6 hours after single IM vaccination; vs. NIDS or no adjuvant; FIG. 8
Experimental: To find further in vivo support of the above air pouch model results, in vivo production of early pro-inflammatory cytokines TNFα and IL-6 were determined in sera of mice at 6 hours following a single IM injection of NIDS vs. poly (I:C) vs. no adjuvant.

[5] = air pouch supernatant 6 hours after injection

Row | Compound | serum IgG1 antigen-specific responses [1] | local TH1 and TH2 cytokine responses in iliac lymph nodes [2] | TNFα ([3]; air pouch supernatant 6 hours after injection of seven mouse vaccine dose equivalents) | G-CSF [3, 5] | IL-6 [3, 5] | IP-10 [3, 5] | KC [3, 5] | MCP-1 [3, 5] | MIP1-a [3, 5] | MIP-1b [3, 5] | MIP-2 [3, 5] | RANTES [3, 5] | serum IL-6 [4] | serum TNFα [4]
1 | CCCCCCCC/C=C\CCCCCCCC(=O)O [oleic acid] | enhanced | – | – | – | – | – | – | – | – | – | – | – | – | –
2 | poly (I:C) | – | enhanced | Significantly higher | Significantly higher | Significantly higher | Significantly higher | Significantly higher | Significantly higher | Significantly higher | Significantly higher | Significantly higher | Significantly higher | significantly enhanced | significantly enhanced
